Counter-ions that a name gives are not always drawn.
| melting point [°C] | Structure (SMILES) |
| --- | --- |
| > 300 | c1ccc2cc3oc(N4CCN5CCC4CC5)nc3cc2c1 |
| 167.2 | c1ccc2c(c1)ccc1oc(N3CCN4CCC3CC4)nc12 |
| 281.3 | c1ccc(-c2ccc3nc(N4CCN5CCC4CC5)oc3c2)cc1 |
| > 300 | Ic1ccc2oc(N3CCN4CCC3CC4)nc2c1 |
| > 300 | c1ccc2[nH]c(N3CCN4CCC3CC4)nc2c1 |
| 240.2 | O=[N+]([O-])c1ccc2oc(N3CCN4CCC3CC4)nc2c1 |
| > 300 | c1ccc(-c2ccc3oc(N4CCN5CCC4CC5)nc3c2)cc1 |

More lines, now with the values behind:

| Structure (SMILES) | melting point [°C] |
| --- | --- |
| O=[N+]([O-])c1ccc2nc(N3CCN4CCC3CC4)oc2c1 | 296.4 |
| Brc1cnc2oc(N3CCN4CCC3CC4)nc2c1 | > 300 |
| c1cncc(-c2ccc3oc(N4CCN5CCC4CC5)nc3c2)c1 | > 300 |
| O=[N+]([O-])c1cccc2oc(N3CCN4CCC3CC4)nc12 | 232.1 |
| O=[N+]([O-])c1cc2nc(N3CCN4CCC3CC4)oc2cc1Cl | 242.3 |
| O=[N+]([O-])c1cc2oc(N3CCN4CCC3CC4)nc2cc1Cl (as salt: hydrochloride) | > 300 |

From US6809094B2, “Pharmaceutical composition for the treatment of CNS and other disorders” (Pfizer Inc, priority 2000, dated 2004)
